The values below come from US4336253A, “Cephalosporin antibiotics” (Eli Lilly and Company, priority 1981, dated 1982).

Structures are written as SMILES.

A short description of this data set: physchem.
Setting [1] is: 66% dmf, first titratable group.
Where [2] appears, read: 66% dmf, second titratable group.

Consider `O=C(Cc1cccnc1)NO` [N-hydroxy 3-pyridineacetamide], for which the pKa worked out at 3.68 under setting [1]; 11.5 under setting [2]; 4.6 (water, first titratable group); 9.09 (water, second titratable group).
In the same order, the values of `O=C(Cc1ccccn1)NO` [N-hydroxy-2-pyridineacetamide] are around 3.4, 11.7, 4.05 and 9.2.
`CN(O)C(=O)c1ccncc1` [N-hydroxy-N-methyl 4-pyridinecarboxamide]: the pKa is 3.55 (water, first titratable group) and 7.9 (water, second titratable group).
